# Measured values reported in paper PMC6131691 (Chirality, 2012).
# Like-named read-outs stand apart in the source and are kept apart here. Marks after values point to notes of the source that are not given here.
# Key:
# 1321N1 tumors = settings: tumors implanted in the flank of SKID mice; cited from earlier work
# [1] = tested on: human intestinal S9 fractions (mixture of SULT enzymes); assay: Kinetics of sulfation of MF stereoisomers by human intestinal S9 fractions; settings: read-out: Km (Michaelis constant) of sulfation; human intestinal S9 1 mg/ml, 200 µM PAPS, pH 7.4, 60 min; mean ± SE
# SULT1A3 [2] = assay: cDNA-expressed SULT isoform screen, SULT1A3; settings: relative to SULT1A1*1, SULT1A1*2, SULT1E1
# [3] = tested on: human-derived 1321N1 astrocytoma cells; settings: read-out: IC50, inhibition of mitogenesis; cited from earlier work
# SULT isoforms = assay: cDNA-expressed SULT isoform screen, comparison of stereoisomers across isoforms; type: in vitro ADME, human; settings: in each of the SULT isoforms
# [4] = humans; cited from earlier work
# β2-AR = settings: relative to (R,R)-MF; ref unpublished data; cited from earlier work
# [5] = tested on: human intestinal S9 fractions (mixture of SULT enzymes); settings: for Reduction of (R,R)-MF conjugation at equimolar concentrations: equimolar with 50 µM [3H]-(R,R)-MF
# SULT1A3 [6] = tested on: SULT1A3
# [7] = tested on: human intestinal S9 fractions (mixture of SULT enzymes); settings: pH 7.4
structure (smiles),measurement,setting,value
"COc1ccc(C[C@@H](C)NC[C@H](O)c2cc(O)cc(O)c2)cc1 [(R,R)-MF, (R,R)-4-methoxyfenoterol]",Growth of 1321N1 tumors,1321N1 tumors,retards the growth
same,Km,[1],62 ± 1.27 µM
same,"SULT1A3-mediated conjugation, greater than the sulfation by the other isoforms",SULT1A3 [2],1.5- to 2 fold
same,IC50,[3],0.00017 µM
same,"Sulfation rate compared with (S,S)-MF, (R,S)-MF and (S,R)-MF",SULT isoforms,significantly (P < 0.0001) lower
"CC(Cc1ccc(O)cc1)NCC(O)c1cc(O)cc(O)c1 [(R,R;S,S)-Fen, fenoterol]",Oral bioavailability,[4],~ 2%
"COc1ccc(CC(C)NCC(O)c2cc(O)cc(O)c2)cc1 [(S,R)-MF, 4-methoxyfenoterol]","β2-AR agonist activity as share of that of (R,R)-MF",β2-AR,less than 5%
same,"Reduction in the production of (R,R)-MF sulfate","[5]; 2:1 ratio of (S,R)-MF/(R,R)-MF, human intestinal S9",61%
same,"Reduction of (R,R)-MF conjugation at equimolar concentrations",[5]; human intestinal S9,~ 40%
same,"SULT1A3-mediated conjugation, greater than the sulfation by the other isoforms",SULT1A3 [6],1.5- to 2 fold
same,Km,[7],52 µM
"COc1ccc(CC(C)NCC(O)c2cc(O)cc(O)c2)cc1 [(S,S)-MF, 4-methoxyfenoterol]","Activity of SULT1E1, lower than SULT1A1*1, SULT1A1*2 and SULT1A3",SULT1E1,1.3 fold
same,IC50,[5],> 200 µM
same,"Reduction of (R,R)-MF conjugation at equimolar concentrations",[5]; human intestinal S9,little effect
same,Km,[7],89 µM
same,Km (Michaelis constant) of sulfation,[7],89.21 ^a ± 2.59 µM
"COc1ccc(CC(C)NCC(O)c2cc(O)cc(O)c2)cc1 [(R,S)-MF, 4-methoxyfenoterol]",IC50,[5],> 400 µM
same,"Reduction of (R,R)-MF conjugation at equimolar concentrations",[5]; human intestinal S9,little effect
same,"SULT1A1*1-catalyzed sulfation, greater than SULT1A3 and SULT1E1",SULT1A1*1,1.5 fold
same,Km,[7],68.5 ± 3.2 µM
same,"SULT1A1*2-catalyzed sulfation, greater than SULT1A3 and SULT1E1",SULT1A1*2,1.5 fold
